# Assay results: patent publication EP0819136B1, “MDP DERIVATIVES AND CONJUGATES HAVING HAEMATOPOIETIC FUNCTION STIMULATING ACTIVITY, AND COMPOSITIONS CONTAINING SAME” (VACSYN S.A., priority 1995, dated 1996)
# What was measured:
# [1] = system: neutrophiles circulants, leucocytes circulants, monocytes circulants, myélocytes circulants; assay: Comparison of Muradimétide and GM-CSF on circulating cell counts after i.v. AZT (Example 9, figures 4-7); format: in vivo, souris Swiss femelles; conditions: AZT 40 mg/kg i.v. days 0-3; Muradimétide 25 mg/kg or mGM-CSF 125 µg/kg i.v. 4 h before AZT
# Source text: La figure 4 représente les effets comparés du Muradimétide et du rmGM-CSF (recombinant mouse GM-CSF) sur la numération des neutrophiles circulants après administration d'AZT.
# La figure 5 représente la même comparaison sur la numération des leucocytes circulants.
# La figure 6 représente la même comparaison sur la numération de monocytes circulants.
# La figure 7 représente la même comparaison sur la numération des myélocytes circulants.
# Lorsque les souris ayant reçu un traitement par l'AZT sont traitées par du GM-SCF dans les mêmes conditions que celles utilisées pour le Muradimétide, les comptages de leucocytes et de neutrophiles ne présentent pas d'augmentation contrairement à ce qui est observé lorsque la combinaison AZT-Muradimétide est utilisée. Par contre, on observe une augmentation du nombre des monocytes. Les figures 4, 5, 6, et 7 indiquent l'effet d'un traitement des souris avec du Muradimétide ou avec du mGM-CSF sur les changements respectivement dans les neutrophiles circulants, dans les leucocytes circulants ou dans les monocytes circulants ou dans les myélocytes circulants après une administration intraveineuse d'AZT.
# Les souris Swiss femelles ont été traitées par voie intra-veineuse avec 40 mg par kg d'AZT aux jours 0, 1, 2 et 3. […]
# myélocytes circulants = assay: Circulating myelocytes 24 h after 4 daily oral administrations of AZT and/or Muradimétide (Example 4, Table 3); format: in vivo, souris; conditions: for Nbre de myélocytes circulants: 24 h after 4 daily administrations
# Experimental: Le tableau 3 ci-dessous et la figure 11 indiquent l'effet d'un traitement per os des souris avec du Muradimétide avant, en même temps ou après l'AZT administré à 50 mg par kg, sur le nombre de myélocytes circulants testés 24 heures après 4 administrations quotidiennes. Tableau 3
# Le nombre moyen de myélocytes circulant avant le traitement se situe entre 3 et 15 X 10^4 cellules par ml dans les 5 groupes.
# La « P-value » a été calculée par le test Mann Whitney U Rank.
# NS signifie que la différence n'est pas significative. Ce tableau confirme que l'augmentation des myélocytes circulants est d'environ 200 quand il y a effet conjoint de l'AZT et du Muradimétide. Les deux constituants de la combinaison ont été administrés per os soit simultanément soit à des temps séparés.
# [2] = system: leucocytes et de neutrophiles circulants; assay: Leucocyte, neutrophil and myelocyte counts after oral Muradimétide with non-myelotoxic or myelotoxic i.v. AZT (Example 8, figures 1-3); format: in vivo, souris Swiss femelles; conditions: Muradimétide 25 mg/kg p.o. 4 h before AZT 5 or 40 mg/kg i.v., days 0-3; time after start of treatment
# Experimental: La figure 1 montre l'effet d'un traitement per os des souris avec du Muradimétide en association avec des doses d'AZT non myélotoxiques (5 mg par kg) (Fig 1A) ou myélotoxiques (40mg par kg) (Fig 1B) sur le changement des leucocytes circulants.
# La figure 2 représente le même type de courbe sur la numération des neutrophiles; la figure 2A représente une expérience réalisée avec une dose non myélotoxique d'AZT (5 mg par kg) et la figure 2B avec une dose myélotoxique d'AZT (40 mg par kg).
# La figure 3 représente le même type de courbe sur la numération des myélocytes. La figure 3A se rapporte à une dose non myélotoxique d'AZT (5mg/kg) et la figure 3B à une dose myélotoxique (40 mg/kg).
# Cet effet est indiqué sur les figures 1 et 2, les figures 1A et 2A représentant une dose non myélotoxique d'AZT et les figures 1B et 2B représentant une dose myélotoxique d'AZT.
# Dans cette expérience, des souris Swiss femelles ont été injectées par voie intra-veineuse avec de l'AZT à la dose de 5 ou de 40 mg par kg aux jours 0, 1, 2 et 3. Sur chacun des 4 jours et 4 heures avant l'administration d'AZT, des groupes de souris constitués de 5 individus ont reçu per os soit du tampon soit du Muradimétide à la dose de 25 mg par kg.
# Les comptages cellulaires sont effectués aux jours 0, 1, 2, 3, 4 et 7. […]
# [3] = system: globules rouges et les plaquettes; assay: Red blood cell and platelet counts after 7 days of oral AZT, Muradimétide or both (Example 3, figures 9 and 10); format: in vivo, souris femelles BALB/c; conditions: p.o. once daily for 7 days: 100 mg/kg AZT, 50 mg/kg muradimétide, or both simultaneously; counts up to day 10
# Source text: La figure 9 représente l'effet du traitement per os de souris BALB/c pendant 7 jours consécutifs avec de l'AZT, du Muradimétide (MDM) ou un mélange de ceux-ci sur la numération plaquettaire.
# La figure 10 représente l'effet du traitement per os de souris BALB/c pendant 7 jours consécutifs avec de l'AZT, du Muradimétide (MDM) ou un mélange de ceux-ci sur le nombre des globules rouges.
# L'effet d'un traitement de 7 jours sur le nombre de globules rouges et de plaquettes est indiqué dans les figures 9 et 10 respectivement. Les numérations sont représentées en pourcentage de celles obtenues au jour 0. Des souris femelles BALB/c (5 par groupe) sont traitées une fois par jour pendant 7 jours consécutifs par 100 mg/kg d'AZT (Δ), 50 mg/kg de muradimétide (D) ou simultanément par 100 mg/kg d'AZT et 50 mg/kg de muradimétide (O). Les comptages de plaquettes ou de globules rouges ont été réalisés au jour 0 et jusqu'à 10 jours suivant le début du traitement. […] La tendance à l'augmentation de leur nombre apparaît entre les jours 4 et 5. En revanche, l'anémie qui pourrait être observée dans les groupes traités pourrait être due aux saignements répétés; néanmoins la vitesse et l'importance de l'anémie est grandement réduite chez les animaux traités avec le mélange des deux produits en comparaison avec celui observé dans le groupe traité par l'AZT seul. […]
compound,measurement,setting,value
"COC(=O)CC[C@@H](NC(=O)[C@H](C)NC(=O)[C@@H](C)O[C@H]1[C@H](O)[C@@H](CO)OC(O)[C@@H]1NC(C)=O)C(=O)OC (stereo partly drawn) [Muradimétide, Nac-Mur-L-Ala-D-Glu-[OCH3]-OCH3]",comptages de leucocytes et de neutrophiles,[1],effet nettement marqué
same,élévation / mobilisation des CSH dans le sang (myélocytes circulants),[1],très forte élévation
same,Nbre de myélocytes circulants,myélocytes circulants; AZT 50mg/Kg p.o. at 0 h + Muradimetide 25mg/Kg p.o. at 0 h,215 ± 51 x 10^4/ml
same,Nbre de myélocytes circulants,myélocytes circulants; AZT 50mg/Kg p.o. at 0 h + Muradimetide 25mg/Kg p.o. at -4 h,194 ± 50 x 10^4/ml
same,Nbre de myélocytes circulants,myélocytes circulants; AZT 50mg/Kg p.o. at -4 h + Muradimetide 25mg/Kg p.o. at 0 h,187 ± 42 x 10^4/ml
same,Nbre de myélocytes circulants,myélocytes circulants; Muradimetide 25mg/Kg p.o. alone at 0 h,17 ± 15 x 10^4/ml
same,augmentation des myélocytes circulants,"myélocytes circulants; joint effect of AZT 50 mg/kg and Muradimétide 25 mg/kg p.o., simultaneously or at separate times",~200
same,"temps de l'effet maximum (leucocytes, neutrophiles, myélocytes)",[2],4 jours
same,toxicité sur les plaquettes,[3],Aucune toxicité
